Measured values from patent US6846803B1, “Antagonists specific for the corticotropin-releasing factor receptor type 2 (CRFR2)” (priority 1998, dated 2005).
Where two headings read alike, the source gives them in different places. Marks after values point to notes of the source that are not given here. Residues, ends and D or L forms follow the SMILES beside them. *: point of attachment. X1 = O=C(c1ccc(C2(C(F)(F)F)N=N2)cc1)*

How the values were obtained:
[1] = biological target: mouse CRF receptor, type 2β (mCRFR2β) (mouse) (UniProt Q60748); assay: displacement of [125I-Tyr0]Svg from HEK-mCRFR2β membranes
[2] = biological target: mouse CRF receptor, type 2β (mCRFR2β) (mouse) (UniProt Q60748); assay: Kd(rCRFR1)/Kd(mCRFR2β) of the peptide normalised to that of astressin; radioligand displacement
rCRFR1 = biological target: T1, rCRFR1 (Rattus norvegicus, UniProt P35353); assay: cAMP stimulation / inhibition of oCRF-stimulated cAMP production in HEK-rCRFR1 cells; format: cell-based; details: for HEK-rCRFR1 cells rel. pot. (relative potency): Table 4, oCRF alone = 1.00; for HEK-rCRFR1 cells rel. pot. (relative potency) / rCRFR1 relative in vitro potency: 1 μM antagonist, cAMP production stimulated by 1 nM oCRF; for rCRFR1 relative in vitro potency: Table 2, oCRF alone = 1.00 (lower = stronger inhibition)
T1 construct: expressed in transfected cells; host or cells: HEK 293 cells, stably transfected (HEK-rCRFR1)
T1 sequence (P35353 24-415): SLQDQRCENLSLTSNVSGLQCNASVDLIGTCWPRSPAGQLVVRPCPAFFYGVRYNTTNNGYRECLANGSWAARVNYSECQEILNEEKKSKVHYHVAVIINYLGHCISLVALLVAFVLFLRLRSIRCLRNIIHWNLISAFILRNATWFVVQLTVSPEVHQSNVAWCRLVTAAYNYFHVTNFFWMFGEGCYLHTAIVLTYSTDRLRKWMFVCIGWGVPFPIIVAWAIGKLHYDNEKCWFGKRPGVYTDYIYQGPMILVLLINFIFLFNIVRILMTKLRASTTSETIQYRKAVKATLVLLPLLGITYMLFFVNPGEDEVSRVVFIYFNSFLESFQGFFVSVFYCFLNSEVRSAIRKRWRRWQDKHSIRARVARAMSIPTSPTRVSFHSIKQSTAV
Procedure: (§1) HEK-rCRFR1 cells or HEK-mCRFR2β cells were incubated with different CRF agonists in the presence or absence of 1 μM or 10 nM antagonist, or CRF antagonist (c=1 μM) alone. After removal of the medium, cells were lyzed with aqueous 6% trichloroacetic acid (5 min, 100° C.) (Rühmann, A., A. K. E. Köpke, F. M. Dautzenberg, and J. Spiess, Proc. Natl. Acad. Sci. USA 93: 10609-10613, 1996). The cell lysates were stored at −70° C. until assayed with a RIA kit (Amersham, Little Chalfont). […] Statistical significance was determined across groups with ANOVA, and significant differences between groups were determined by post hoc comparison using the Dunn test.
(§2) Intrinsic activities were measured at peptide concentrations generating maximal formation of cAMP in HEK-rCRFR1 or HEK-mCRFR2β cells.

mCRFR2β [3] = biological target: T2, mCRFR2β (Mus musculus, UniProt Q60748); assay: cAMP stimulation / inhibition of Svg-stimulated cAMP production in HEK-mCRFR2β cells; format: cell-based; details: for HEK-mCRFR2β cells rel. pot. (relative potency): Table 4, Svg alone = 1.00; for HEK-mCRFR2β cells rel. pot. (relative potency) / mCRFR2β relative in vitro potency: 10 nM antagonist, cAMP production stimulated by 1 nM Svg; for mCRFR2β relative in vitro potency: Table 2, Svg alone = 1.00 (lower = stronger inhibition)
T2 construct: expressed in transfected cells; host or cells: HEK 293 cells, stably transfected (HEK-mCRFR2β); membrane homogenates
Procedure: as §1, §2
Target sequence in this assay (Q60748 1-431 isoform Q60748-2): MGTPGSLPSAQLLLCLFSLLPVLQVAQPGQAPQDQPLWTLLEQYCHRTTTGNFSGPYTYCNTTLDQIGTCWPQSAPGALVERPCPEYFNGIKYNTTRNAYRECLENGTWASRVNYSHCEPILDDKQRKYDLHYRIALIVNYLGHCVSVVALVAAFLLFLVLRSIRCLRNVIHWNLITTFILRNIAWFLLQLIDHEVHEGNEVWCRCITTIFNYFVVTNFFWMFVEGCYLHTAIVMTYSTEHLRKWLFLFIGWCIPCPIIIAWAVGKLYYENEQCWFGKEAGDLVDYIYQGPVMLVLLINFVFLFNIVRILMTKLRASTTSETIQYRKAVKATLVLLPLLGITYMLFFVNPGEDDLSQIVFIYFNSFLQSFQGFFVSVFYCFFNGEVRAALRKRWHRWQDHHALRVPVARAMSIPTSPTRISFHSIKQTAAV

mCRFR2β [4] = biological target: T2, mCRFR2β; assay: Displacement of [^125I-Tyr^0]Svg from membranes of HEK-mCRFR2β cells; format: binding; details: for Selectivity: Kd(rCRFR1)(peptide)/Kd(rCRFR1)(astressin) × Kd(mCRFR2β)(astressin)/Kd(mCRFR2β)(peptide)
Procedure: Binding assays were performed in 96-well MultiScreen plates (Millipore, Eschborn, Germany) with GF/B filters (pore size 1.0 μm). […] After incubation (60 min, 23° C.), membrane suspension was aspirated through the plate, followed by two washes with assay buffer (0.2 ml, 23°). Radioactivity of the punched filters was measured with a 1470 WIZARD automatic gamma counter (Berthold, Hannover). […] Statistical analysis was performed with ANOVA, and significant differences between groups were determined by post hoc comparison using the Dunn test.
Membrane homogenates of human embryonic kidney (HEK) 293 cells stably transfected with cDNA coding for rat CRF receptor, type 1 (rCRFR1) or mouse CRF receptor, type 2β (mCRFR2β) were prepared according to standard protocols (see, e.g., Sambrook et al., Molecular Cloning: A Laboratory Manual, 2nd. Edition, Cold Spring Habor Laboratory Press, Cold Spring Habor, N.Y., 1989; Ausubel et al., Current Protocols in Molecular Biology, Green Publishing Associates and Wiley Interscience, NY, 1989).

[5] = read-out: HEK-rCRFR1 cells rel. IA (relative intrinsic activity)
[6] = read-out: HEK-mCRFR2β cells rel. IA (relative intrinsic activity)

Chain of sauvagine (Svg) (peptide) (peptide): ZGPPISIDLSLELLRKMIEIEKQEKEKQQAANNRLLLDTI

| Compound | Emax (rCRFR1; [5]) [%] | Emax (mCRFR2β [3]; [6]) [%] | Kd (mCRFR2β [4]) [nM] | rCRFR1 relative in vitro potency (rCRFR1) | mCRFR2β relative in vitro potency (mCRFR2β [3]) | Selectivity (mCRFR2β [4]; Table 1) | other results |
| --- | --- | --- | --- | --- | --- | --- | --- |
| sauvagine (Svg) (peptide) |  |  |  |  |  |  | Kd [1]: 4.5 nM; Selectivity [2]: 0.109 |
| CC[C@H](C)[C@H](NC(=O)[C@@H](NC(=O)[C@H](CC(=O)O)NC(=O)[C@H](CC(C)C)NC(=O)[C@H](CC(C)C)NC(=O)[C@H](CC(C)C)NC(=O)[C@H](CCCNC(=N)N)NC(=O)[C@H](CC(N)=O)NC(=O)[C@H](CC(N)=O)NC(=O)[C@H](C)NC(=O)[C@H](C)NC(=O)[C@H](CCC(N)=O)NC(=O)[C@H](CCC(N)=O)NC(=O)[C@H](CCCCN)NC(=O)[C@H](CCC(=O)O)NC(=O)[C@H](CCCCN)NC(=O)[C@H](CCC(=O)O)NC(=O)[C@H](CCC(N)=O)NC(=O)[C@H](CCCCN)NC(=O)[C@H](CCC(=O)O)NC(=O)[C@@H](NC(=O)[C@H](CCC(=O)O)NC(=O)[C@@H](NC(=O)[C@H](CCSC)NC(=O)[C@H](CCCCN)NC(=O)[C@H](CCCNC(=N)N)NC(=O)[C@H](CC(C)C)NC(=O)[C@H](CC(C)C)NC(=O)[C@H](Cc1c[nH]cn1)NC(=O)[C@@H](N)Cc1ccc(O)cc1)[C@@H](C)CC)[C@@H](C)CC)[C@@H](C)O)C(N)=O [compound 18, [Tyr^11, His^12]Svg(11-40)] (H-YHLLRKMIEIEKQEKEKQQAANNRLLLDTI-NH2; N-terminus assumed) | 3 ± 1 | 0.8 ± 0.2 | 4.9 ± 1.8 |  |  |  | HEK-rCRFR1 cells rel. pot. (relative potency) (rCRFR1): 0.79 ± 0.07; HEK-mCRFR2β cells rel. pot. (relative potency) (mCRFR2β [3]): 0.37 ± 0.05; Selectivity (mCRFR2β [4]; Table 3): 31.64 |
| CC[C@H](C)[C@H](NC(=O)[C@@H](NC(=O)[C@H](CC(=O)O)NC(=O)[C@H](CC(C)C)NC(=O)[C@H](CC(C)C)NC(=O)[C@H](CC(C)C)NC(=O)[C@H](CCCNC(=N)N)NC(=O)[C@H](CC(N)=O)NC(=O)[C@H](CC(N)=O)NC(=O)[C@H](C)NC(=O)[C@H](C)NC(=O)[C@H](CCC(N)=O)NC(=O)[C@H](CCC(N)=O)NC(=O)[C@H](CCCCN)NC(=O)[C@H](CCC(=O)O)NC(=O)[C@H](CCCCN)NC(=O)[C@H](CCC(=O)O)NC(=O)[C@H](CCC(N)=O)NC(=O)[C@H](CCCCN)NC(=O)[C@H](CCC(=O)O)NC(=O)[C@@H](NC(=O)[C@H](CCC(=O)O)NC(=O)[C@@H](NC(=O)[C@H](CCSC)NC(=O)[C@H](CCCCN)NC(=O)[C@H](CCCNC(=N)N)NC(=O)[C@H](CC(C)C)NC(=O)[C@H](CC(C)C)NC(=O)[C@H](Cc1c[nH]cn1)NC(=O)c1ccc(C2(C(F)(F)F)N=N2)cc1)[C@@H](C)CC)[C@@H](C)CC)[C@@H](C)O)C(N)=O [compound 17, ATB-[His^12]Svg(12-40)] (X1-HLLRKMIEIEKQEKEKQQAANNRLLLDTI-NH2) | 15 ± 1 | 0.7 ± 0.2 | 3.1 ± 0.2 |  |  |  | HEK-rCRFR1 cells rel. pot. (relative potency) (rCRFR1): 0.54 ± 0.06; HEK-mCRFR2β cells rel. pot. (relative potency) (mCRFR2β [3]): 0.48 ± 0.04; Selectivity (mCRFR2β [4]; Table 3): 32.26 |
| [DPhe^11]rUcn(11-40) [compound 7] |  |  |  | 0.18 ± 0.03^g | 0.57 ± 0.06 | 4.45 |  |
| α-helical CRF(9-41) [compound 4, reference compound] |  |  |  | 0.58 ± 0.05 | 0.67 ± 0.02 | 6.61 |  |
| [DPhe^11, Glu^12]rUcn(11-40) [compound 8] |  |  |  | 0.42 ± 0.11 | 0.61 ± 0.02 | 5.04 |  |
| CC[C@H](C)[C@H](NC(=O)[C@@H](NC(=O)[C@H](CC(=O)O)NC(=O)[C@H](CC(C)C)NC(=O)[C@H](CC(C)C)NC(=O)[C@H](CC(C)C)NC(=O)[C@H](CCCNC(=N)N)NC(=O)[C@H](CC(N)=O)NC(=O)[C@H](CC(N)=O)NC(=O)[C@H](C)NC(=O)[C@H](C)NC(=O)[C@H](CCC(N)=O)NC(=O)[C@H](CCC(N)=O)NC(=O)[C@H](CCCCN)NC(=O)[C@H](CCC(=O)O)NC(=O)[C@H](CCCCN)NC(=O)[C@H](CCC(=O)O)NC(=O)[C@H](CCC(N)=O)NC(=O)[C@H](CCCCN)NC(=O)[C@H](CCC(=O)O)NC(=O)[C@@H](NC(=O)[C@H](CCC(=O)O)NC(=O)[C@@H](NC(=O)[C@H](CCSC)NC(=O)[C@H](CCCCN)NC(=O)[C@H](CCCNC(=N)N)NC(=O)[C@H](CC(C)C)NC(=O)[C@H](CC(C)C)NC(=O)[C@H](Cc1c[nH]cn1)NC(=O)[C@H](N)Cc1ccccc1)[C@@H](C)CC)[C@@H](C)CC)[C@@H](C)O)C(N)=O [compound 11, [DPhe^11, His^12]Svg(11-40)] | 4 ± 1 | 0.4 ± 0.1 | 1.4 ± 0.4 |  |  |  | Emax (rCRFR1; read-out: rCRFR1 % IA (intrinsic activity)): 4 ± 1%; Emax (mCRFR2β [3]; read-out: mCRFR2β % IA (intrinsic activity)): 0.4 ± 0.1% |
| [DPhe^12]oCRF(12-41) [compound 6] |  |  |  | 0.89 ± 0.07 | 0.92 ± 0.07^k | 1.32 |  |
